Source: PubChem BioAssay AID513 (SGCOxCompounds, 2006)

Molecular target: Casein kinase I isoform gamma-1 (Homo sapiens) (UniProt Q9HCP0)
Assay: ligand binding to human CK1 gamma-1 kinase – biophysical, DSF, SYPRO orange, recombinant protein (AID 513)
Conditions: recombinant CSNK1G1, DSF thermal shift, at 10 µM, protein 2 µM, hits give high values

Sequence of Casein kinase I isoform gamma-1 (Homo sapiens) (Q9HCP0 whole entry, looked up, canonical isoform): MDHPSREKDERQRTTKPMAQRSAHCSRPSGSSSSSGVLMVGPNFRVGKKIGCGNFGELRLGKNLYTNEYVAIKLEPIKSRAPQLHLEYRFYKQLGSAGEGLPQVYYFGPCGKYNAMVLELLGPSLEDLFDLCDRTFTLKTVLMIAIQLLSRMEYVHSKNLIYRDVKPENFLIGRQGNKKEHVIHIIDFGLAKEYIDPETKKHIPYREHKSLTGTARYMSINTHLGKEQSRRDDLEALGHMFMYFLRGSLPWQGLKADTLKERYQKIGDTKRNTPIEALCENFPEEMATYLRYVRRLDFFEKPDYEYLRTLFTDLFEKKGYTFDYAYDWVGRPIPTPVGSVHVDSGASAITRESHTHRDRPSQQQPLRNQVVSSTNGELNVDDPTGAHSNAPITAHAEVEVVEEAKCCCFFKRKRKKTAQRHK

`NC1=N/C(=C2\CCNC(=O)c3[nH]ccc32)C(=O)N1` was tested. Which Tm shift did it give?
The Tm shift was 3.6 Celsius.

`COc1cc(/C=C/C(=O)CC(=O)/C=C/c2ccc(O)c(OC)c2)ccc1O` was tested. Which Tm shift did it give?
Its Tm shift is 4.5 Celsius.

How did the Tm shift turn out when `O=c1c(O)c(-c2ccc(O)c(O)c2)oc2cc(O)cc(O)c12` was run?
Its Tm shift is 3.2 Celsius.

`Nc1nc(Nc2ccccc2)sc1C(=O)c1ccc(F)cc1` was tested. Which Tm shift did it give?
Its Tm shift is 3.9 Celsius.

`N#C/C(=C1\Nc2ccccc2S1)c1ccnc(NCCc2cccnc2)n1` was tested. Which Tm shift did it give?
The Tm shift was 3.7 Celsius.

For `COc1ccc(Nc2nc(N)c(C(=O)c3ccc(OC)cc3)s2)cc1`, which Tm shift is on record?
Its Tm shift is 5.6 Celsius.

`Clc1ccc(Nc2ncc(-c3cn[nH]c3)n3ccnc23)cc1` was tested. Which Tm shift did it give?
Its Tm shift is 3.6 Celsius.

How did the Tm shift turn out when `Oc1ccc(Nc2nccn3c(-c4cn[nH]c4)cnc23)cc1` was run?
The Tm shift was 3.2 Celsius.

With `CC(C)n1cnc2c(Nc3cccc(Cl)c3)nc(NCCO)nc21` as the molecule, how does the Tm shift read?
The Tm shift was 6.1 Celsius.

How did the Tm shift turn out when `NC(=O)c1ccc(-c2nc(-c3ccc4c(c3)OCCO4)c(-c3ccccn3)[nH]2)cc1` was run?
Its Tm shift is 6.1 Celsius.

For `Nc1nc(Nc2ccc(F)cc2)sc1C(=O)c1ccccc1`, which Tm shift is on record?
Its Tm shift is 4.1 Celsius.

Which Tm shift does the source give for `Nc1nc(Nc2ccccc2F)sc1C(=O)c1ccc(Br)cc1` here?
Its Tm shift is 3.9 Celsius.

Which Tm shift does the source give for `Cc1cc(Nc2nc(-c3ccccc3)nc3ccccc23)n[nH]1` here?
The Tm shift was 3.3 Celsius.

With `Nc1nc(Nc2cccc(Cl)c2)sc1C(=O)c1ccc(F)cc1` as the molecule, how does the Tm shift read?
Its Tm shift is 5.3 Celsius.

How did the Tm shift turn out when `CSc1nc(-c2ccnc(NC(C)c3ccccc3)c2)c(-c2ccc(F)cc2)[nH]1` (configuration not stated) was run?
Its Tm shift is 3.6 Celsius.

How did the Tm shift turn out when `CCN(CC)CCNC(=O)c1c(C)[nH]c(/C=C2\C(=O)Nc3ccc(Cl)cc32)c1C` was run?
Its Tm shift is 4.3 Celsius.

`O=Nc1c(-c2c(O)[nH]c3ccc(S(O)(O)O)cc23)[nH]c2ccccc12` was tested. Which Tm shift did it give?
Its Tm shift is 4 Celsius.

With `COc1ccc(Nc2nc(N)c(C(=O)c3ccc(Cl)cc3)s2)cc1` as the molecule, how does the Tm shift read?
Its Tm shift is 4.1 Celsius.

Which Tm shift does the source give for `O=Nc1c(-c2c(O)[nH]c3cc(Br)ccc23)[nH]c2ccccc12` here?
The Tm shift was 3.5 Celsius.

For `O=c1[nH]c(O)c2c1c1c3ccccc3nc1n1cncc21`, which Tm shift is on record?
The Tm shift was 4.3 Celsius.

For `NC1=N/C(=C2/CCNC(=O)c3[nH]c(Br)cc32)C(=O)N1`, which Tm shift is on record?
The Tm shift was 5.7 Celsius.

With `CCn1cnc2c(Nc3cccc(Cl)c3)nc(N[C@@H]3CCCC[C@@H]3N)nc21` as the molecule, how does the Tm shift read?
Its Tm shift is 5.8 Celsius.
